From patent publication US20040006236A1, “Diaminopropionic acid derivatives” (priority 1999, published 2004)
Where two headings read alike, the source gives them in different places.

Columns and labels:
[1] = system: T lymphocyte proliferation (C57BI/6 spleen cells with irradiated BALB/c spleen cells); assay: Mixed lymphocyte reaction (MLR), one-way; assay type: cell-based, mice; conditions: read-out: MLR IC50
Description: Admixture of murine spleen cells from two different inbred strains of mice induces proliferation of T lymphocytes. The magnitude of T cell proliferation depends on the extent of disparity in the major histocompatibility antigens between the two strains. Splenic T lymphocytes from both strains proliferate due to alloantigen recognition, a process for which the interaction of ICAM-1 on antigen-presenting cells with LFA-1 on lymphocytes is necessary. The ability of antagonists to inhibit T lymphocyte proliferation following recognition of alloantigens was assessed in a one-way MLR, where cells from one strain were irradiated to permit measurement of the proliferative response of cells from the other strain. Spleen cells were washed three times in tissue culture medium (TCM; see below). […] One hundred microliters of serial dilutions of antagonists or TCM were added to the spleen cell mixture. The total volume in each well was 200 μL. TCM was RPMI1640 containing 10% heat-inactivated fetal bovine serum, […] L-glutamine, 100 Units/ml each of penicillin and streptomycin and 5×10^−5 M 2-mercaptoethanol. Dilutions of antagonists were prepared in TCM. Plates were incubated in 5% CO2 for 3 days. On the third day, 0.5 μCi of tritiated thymidine (10 μCi/mL) was added to all the wells. Cells were harvested 6 h later on a 96-well plate harvester and the amount of tritiated thymidine incorporated was assessed in a liquid scintillation counter.

[2] = target: T1, LFA-1 binding to immobilized ICAM-1 (Homo sapiens, UniProt P05107+P20701); assay: LFA-1/ICAM-1 protein-protein assay (solid-phase ELISA); conditions: read-out: LFA-1/ICAM-1 Protein-Protein Assay IC50
T1 construct: made in house; host or cells: transfected 293 cells (LFA-1)
T1 sequence (P20701 26-1170): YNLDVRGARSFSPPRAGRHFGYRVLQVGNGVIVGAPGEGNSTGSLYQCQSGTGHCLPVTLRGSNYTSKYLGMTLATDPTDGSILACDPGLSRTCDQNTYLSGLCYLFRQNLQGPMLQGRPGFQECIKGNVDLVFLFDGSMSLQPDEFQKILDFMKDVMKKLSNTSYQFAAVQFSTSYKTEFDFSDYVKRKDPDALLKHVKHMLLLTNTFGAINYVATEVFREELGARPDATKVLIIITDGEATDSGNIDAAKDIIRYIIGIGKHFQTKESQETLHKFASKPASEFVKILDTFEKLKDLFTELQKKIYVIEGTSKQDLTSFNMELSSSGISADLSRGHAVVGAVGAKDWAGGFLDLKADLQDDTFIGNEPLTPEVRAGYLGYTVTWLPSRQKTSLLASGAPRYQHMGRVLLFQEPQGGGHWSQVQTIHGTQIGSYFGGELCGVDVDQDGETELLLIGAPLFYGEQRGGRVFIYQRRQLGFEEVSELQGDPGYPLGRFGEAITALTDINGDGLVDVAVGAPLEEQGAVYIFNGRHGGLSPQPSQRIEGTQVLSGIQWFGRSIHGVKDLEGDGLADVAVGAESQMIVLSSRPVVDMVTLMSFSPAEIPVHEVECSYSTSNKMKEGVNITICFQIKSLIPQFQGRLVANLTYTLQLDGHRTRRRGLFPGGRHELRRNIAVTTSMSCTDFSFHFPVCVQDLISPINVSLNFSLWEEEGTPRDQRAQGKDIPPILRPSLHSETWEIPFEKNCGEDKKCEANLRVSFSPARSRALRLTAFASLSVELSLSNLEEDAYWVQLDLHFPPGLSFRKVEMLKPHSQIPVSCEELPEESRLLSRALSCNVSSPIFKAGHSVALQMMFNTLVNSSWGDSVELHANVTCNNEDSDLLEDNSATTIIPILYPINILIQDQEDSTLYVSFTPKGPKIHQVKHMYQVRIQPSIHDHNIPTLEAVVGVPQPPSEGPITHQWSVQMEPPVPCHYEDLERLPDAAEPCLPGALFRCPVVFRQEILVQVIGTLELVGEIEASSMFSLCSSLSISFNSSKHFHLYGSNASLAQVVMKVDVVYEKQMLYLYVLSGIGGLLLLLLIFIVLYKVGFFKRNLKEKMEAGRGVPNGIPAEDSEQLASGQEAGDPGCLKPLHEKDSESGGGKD
T1 sequence (P05107 23-769): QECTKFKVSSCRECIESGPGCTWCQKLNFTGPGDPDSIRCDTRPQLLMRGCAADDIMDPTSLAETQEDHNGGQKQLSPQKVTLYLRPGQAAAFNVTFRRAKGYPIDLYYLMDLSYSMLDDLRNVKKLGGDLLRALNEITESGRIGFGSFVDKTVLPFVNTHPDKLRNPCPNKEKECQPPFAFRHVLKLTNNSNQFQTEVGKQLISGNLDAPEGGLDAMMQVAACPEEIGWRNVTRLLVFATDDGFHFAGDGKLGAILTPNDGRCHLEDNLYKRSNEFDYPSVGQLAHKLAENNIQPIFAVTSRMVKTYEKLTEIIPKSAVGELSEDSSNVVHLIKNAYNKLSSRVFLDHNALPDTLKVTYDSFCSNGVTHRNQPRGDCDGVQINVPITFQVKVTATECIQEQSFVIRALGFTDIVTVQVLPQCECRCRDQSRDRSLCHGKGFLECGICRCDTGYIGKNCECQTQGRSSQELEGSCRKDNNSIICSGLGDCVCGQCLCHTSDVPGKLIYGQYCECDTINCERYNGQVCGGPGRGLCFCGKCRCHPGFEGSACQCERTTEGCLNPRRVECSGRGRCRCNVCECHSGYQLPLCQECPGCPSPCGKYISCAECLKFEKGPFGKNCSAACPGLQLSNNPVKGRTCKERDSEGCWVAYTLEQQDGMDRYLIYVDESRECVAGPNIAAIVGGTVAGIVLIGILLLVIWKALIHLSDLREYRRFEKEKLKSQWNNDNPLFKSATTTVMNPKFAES
Procedure, shortened: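 Human 5dICAM-Ig (ICAM-1 extracellular domain–IgG Fc) coated on plates; membrane-bound LFA-1 from transfected 293 cells (280 ng/mL) added with compound in Mn2+-containing HEPES buffer pH 7.2, 2 h at 37° C. Bound LFA-1 detected via anti-β2 antibody and HRP/TMB at 450 nm; IC50s determined.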

[3] = system: cell-surface Mac-1 adhesion to immobilized fibrinogen (HL-60 cells); assay: Mac-1/Fibrinogen cell-based screening assay; set-up: species or system human; conditions: read-out: Mac-1/Fgn Cell based Assay IC50
Method: Cellular Mac-1/Fibrinogen antagonist activity, defined as the ability to inhibit cell-surface Mac-1 adhesion to immobilized fibrinogen, was quantitated by a cell based assay. Human fibrinogen was coated onto 96 well microtiter plates (1 μg in 100 μL TBS) overnight at 4° C. The plates were then blocked with 150 μL of 10% polyvinyl pyrrolidone (PVP) in TBS for 1 h at 37° C. Plates were washed 3 times (150 μL each) with TBS. […] A ten-fold excess of volume of the same buffer was added and cells were centrifuged. The medium was decanted and cells were resuspended at a concentration of 2×10^6 cells/mL in RPMI/0.05% BSA/0.2 mM MnCl2. Stock solutions (10 mM in DMSO) of test compounds were diluted to 2.5 mM with DMSO. […] Each sample was further diluted 50-fold with RPMI/0.05% BSA/0.2 mM MnCl2. Equal volumes of labeled cells were then added to assay tubes containing diluted compounds. […] Cells were incubated for 10 min at 37° C. with gentle shaking, then dispensed (100 μL per well) onto fibrinogen coated plates and incubated for 30 min at 37° C./5% CO2. Unbound cells were gently washed with TBS two times.

[4] = Homo sapiens, HL-60, HL-60 cells

| Structure (SMILES) | IC50 [2] [nM] | IC50 [3, 4] [nM] | IC50 ([3]; HL-60 cells) [nM] | IC50 ([1]; Mus musculus, T-lymphocyte) [nM] | IC50 [1] [nM] |
| --- | --- | --- | --- | --- | --- |
| O=C(NC[C@H](NC(=O)c1ccc(C(O)CCc2cccc(O)c2)cc1Cl)C(=O)O)c1cccs1 (mixture of isomers) [Example 320] | 1 | 64 | – | 145 | – |
| O=C(NCc1cccc(O)c1)c1ccc(C(=O)N[C@@H](CNC(=O)c2cc(F)cc(C(F)(F)F)c2)C(=O)O)c(Cl)c1 [Example 260] | 5.4 | 330 | – | 1950 | – |
| NCCCCCCCCCCC(=O)NC[C@H](NC(=O)c1ccc(C(=O)NCc2cccc(O)c2)cc1Cl)C(=O)O [Example 270] | 7.9 | 357 | – | 4750 | – |
| N[C@@H](Cc1ccc(OCc2c(Cl)cccc2Cl)cc1)C(=O)NC[C@H](NC(=O)c1ccc(C(=O)NCc2cccc(O)c2)cc1Cl)C(=O)O [Example 273] | 7.4 | 1740 | – | 12000 | – |
| CC(C)C[C@H](N)C(=O)NC[C@H](NC(=O)c1ccc(C(=O)NCc2cccc(O)c2)cc1Cl)C(=O)O [Example 277] | 4.3 | 282 | – | 8700 | – |
| CCCC[C@H](N)C(=O)NC[C@H](NC(=O)c1ccc(C(=O)NCc2cccc(O)c2)cc1Cl)C(=O)O [Example 278] | 8.5 | 311 | – | 13500 | – |
| CN[C@@H](C)C(=O)NC[C@H](NC(=O)c1ccc(C(=O)NCc2cccc(O)c2)cc1Cl)C(=O)O [Example 279] | 8 | 371 | – | 2200 | – |
| NC1(C(=O)NC[C@H](NC(=O)c2ccc(C(=O)NCc3cccc(O)c3)cc2Cl)C(=O)O)CCCCC1 [Example 284] | 5.7 | 198 | – | 1130 | – |
| NC[C@H]1CC[C@H](C(=O)NC[C@H](NC(=O)c2ccc(C(=O)NCc3cccc(O)c3)cc2Cl)C(=O)O)CC1 [Example 286] | 4.1 | 74 | – | 1520 | – |
| Cc1cc(C(=O)N[C@H](C)c2cccc3ccccc23)ccc1C(=O)N[C@@H](CNC(=O)c1cccs1)C(=O)O [Example 325] | 2.6 | 59 | – | 965 | – |
| Cc1cc(C(=O)N[C@H](C)c2cccc3ccccc23)ccc1C(=O)N[C@@H](CNC(=O)c1ccccc1)C(=O)O [Example 326] | 4.1 | 93 | – | 1500 | – |
| O=C(NCc1cccc(O)c1)c1ccc(C(=O)N[C@@H](CNC(=O)c2cccs2)C(=O)O)c(Br)c1 [Example 328, N-[2-bromo-4-[[[(3-hydroxyphenyl)methyl]amino]carbonyl]benzoyl]-3-(thiophene-2-carbonyl)amino-L-alanine] | 1.3 | 28 | – | 160 | – |
| O=C(NCc1cccc(O)c1)c1ccc(C(=O)N[C@@H](CNC(=O)c2cccs2)C(=O)O)c(F)c1 [Example 331] | 1.1 | 68 | – | 710 | – |
| O=C(NCc1cccc(O)c1)c1cc(Cl)c(C(=O)N[C@@H](CNC(=O)c2cccc(Cl)c2)C(=O)O)c(Cl)c1 [Example 348, 3-[(3-chlorobenzoyl)amino]-N-[2,6-dichloro-4-[[[(3-hydroxyphenyl)methyl]amino]carbonyl]benzoyl]-L-alanine] | 1.3 | 19.8 | – | 173 | – |
| Cc1cccc(C(=O)NC[C@H](NC(=O)c2c(Cl)cc(C(=O)NCc3cccc(O)c3)cc2Cl)C(=O)O)c1 [Example 352] | 1.2 | 28 | – | 91 | – |
| O=C(NCc1cccc(O)c1)c1cc(Cl)c(C(=O)N[C@@H](CNC(=O)c2sccc2Cl)C(=O)O)c(Cl)c1 [Example 355] | 0.9 | 17.7 | – | 86 | – |
| O=C(NCc1cccc(O)c1)c1cc(Cl)c(C(=O)N[C@@H](CNC(=O)c2cc(Br)c(Br)s2)C(=O)O)c(Cl)c1 [Example 356] | 3.4 | 81 | – | 1760 | – |
| Cc1ccsc1C(=O)NC[C@H](NC(=O)c1c(Cl)cc(C(=O)NCc2cccc(O)c2)cc1Cl)C(=O)O [Example 357] | 0.5 | 23 | – | 21 | – |

Further lines, with some results ahead:

| IC50 [2] [nM] | IC50 [3, 4] [nM] | IC50 ([3]; HL-60 cells) [nM] | Structure (SMILES) | IC50 ([1]; Mus musculus, T-lymphocyte) [nM] | IC50 [1] [nM] |
| --- | --- | --- | --- | --- | --- |
| 7.1 | 149 | – | O=C(NCc1cccc(O)c1)c1ccc(C(=O)N[C@@H](CNC(=O)c2cc(Br)cc(Br)c2)C(=O)O)c(Cl)c1 [Example 228, N-[2-chloro-4-[[[(3-hydroxyphenyl)methyl]amino]carbonyl]benzoyl]-3-(3,5-dibromobenzoyl)amino-L-alanine] | 5000 | – |
| 2.9 | 71 | – | O=C(NCc1cccc(O)c1)c1ccc(C(=O)N[C@@H](CNC(=O)[C@@H]2CSCN2)C(=O)O)c(Cl)c1 [Example 267] | 490 | – |
| 1.7 | 148 | – | O=C(NCc1cccc(O)c1)c1ccc(C(=O)N[C@@H](CNC(=O)[C@@H]2C[C@@H](O)CN2)C(=O)O)c(Cl)c1 [Example 268] | 900 | – |
| 3.8 | 547 | – | N[C@@H](Cc1ccc([N+](=O)[O-])cc1)C(=O)NC[C@H](NC(=O)c1ccc(C(=O)NCc2cccc(O)c2)cc1Cl)C(=O)O [Example 271] | 4100 | – |
| 6.9 | 235 | – | N[C@H](Cc1c[nH]c2ccccc12)C(=O)NC[C@H](NC(=O)c1ccc(C(=O)NCc2cccc(O)c2)cc1Cl)C(=O)O [Example 276] | 7250 | – |
| 3.1 | – | 77 | C[C@H](N)C(=O)NC[C@H](NC(=O)c1ccc(C(=O)NCc2cccc(O)c2)cc1Cl)C(=O)O [Example 280] | 4200 | – |
| – | – | 291 | C[C@H](N)C(=O)NC[C@H](NC(=O)c1ccc(C(=O)NCc2cccc(O)c2)cc1Cl)C(=O)O [Example 281] | – | 4450 |
| 4.6 | 162 | – | CC(C)(N)C(=O)NC[C@H](NC(=O)c1ccc(C(=O)NCc2cccc(O)c2)cc1Cl)C(=O)O [Example 282] | 1050 | – |
| 3.1 | 166 | – | CNCC(=O)NC[C@H](NC(=O)c1ccc(C(=O)NCc2cccc(O)c2)cc1Cl)C(=O)O [Example 283] | 1500 | – |
| 3.1 | 135 | – | N[C@H](C(=O)NC[C@H](NC(=O)c1ccc(C(=O)NCc2cccc(O)c2)cc1Cl)C(=O)O)c1ccccc1 [Example 285] | 3100 | – |
| 6.3 | 290 | – | N[C@@H](COCc1ccccc1)C(=O)NC[C@H](NC(=O)c1ccc(C(=O)NCc2cccc(O)c2)cc1Cl)C(=O)O [Example 293] | 13500 | – |
| 1.9 | 89 | – | N[C@H]1Cc2ccccc2CN(CC(=O)NC[C@H](NC(=O)c2ccc(C(=O)NCc3cccc(O)c3)cc2Cl)C(=O)O)C1=O [Example 295] | 1620 | – |
| 3.4 | 167 | – | O=C(NCc1cccc(O)c1)c1ccc(C(=O)N[C@@H](CNC(=O)[C@@H]2Cc3c([nH]c4ccccc34)CN2)C(=O)O)c(Cl)c1 [Example 296] | 4600 | – |
| 1.5 | 32 | – | Cc1cc(C(=O)NCc2cccc(O)c2)ccc1C(=O)N[C@@H](CNC(=O)c1ccccc1)C(=O)O [Example 324] | 460 | – |
